Among the test systems are 786-0; ACHN; COLO 205; DLD-1; DMS-273; EKVX; HCT-15; HOP-62; K562; MOLT-4; Malme-3M; NCI-H23; SF-295; SF-539; SN12C; SNB-75; SK-MEL-5.
What all share (experiment): NCI-60 cell line screen, 48 h

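Five compound concentrations were applied to cells in 96-well plates for 48 hours; endpoints were derived by simple linear interpolation of the resulting dose-response curve. GI50 is the concentration that inhibits growth by half.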 Calls of active or inactive are those of the source. Cut-off read from the data, not from the text of the source: active = GI50 up to about 1.1 µM and inactive = higher.

Consider `COc1cc(-c2cc(O)c3ccccc3n2)cc(OC)c1OC`, for which the GI50 in the assay on 786-0, in the assay with ACHN, in the assay on COLO 205, with DLD-1, with DMS-273 and with EKVX was > 75 µM (inactive) in each case. Moreover, the GI50 in the assay with HCT-15 was more than 75 µM; in the assay with HOP-62, > 75 µM (inactive); in the assay on K562, > 75 µM (inactive); with MOLT-4, > 75 µM (inactive); in the assay with Malme-3M it was > 75 µM (inactive); in the assay with NCI-H23, > 75 µM (inactive). The GI50 in the assay with SF-295 is > 75 µM (inactive); in the assay on SF-539 it was > 75 µM (inactive); in the assay with SN12C, > 75 µM (inactive); with SNB-75, 50.5 µM (inactive).
With `COc1cccc(NC(=O)C(=O)C(C(=O)c2ccccc2F)C2OC(=O)c3ccccc32)c1` (stereo not drawn), the GI50 was 45.1 µM (inactive) with ACHN; 14.6 µM (inactive) in the assay on COLO 205; 36.6 µM (inactive) in the assay on DLD-1; 29 µM (inactive) with DMS-273; 41.8 µM (inactive) with EKVX; 28.7 µM with HCT-15. Also, the GI50 in the assay on HOP-62 was 42.2 µM (inactive); with K562 it was 30.9 µM (inactive); in the assay on MOLT-4, 25.4 µM (inactive); in the assay with NCI-H23, 29.6 µM (inactive); in the assay with SF-295 it was 37.7 µM (inactive); with SF-539, 21.3 µM (inactive). For the same molecule, the GI50 is 52 µM (inactive) in the assay with SK-MEL-5, 18.7 µM (inactive) in the assay with SN12C and 24.9 µM (inactive) with SNB-75.
Regarding `CC1(C)OCC(C(O)C2OC(C)(C)OC2/C=N\O)O1` (stereo not drawn), the GI50 in the assay on 786-0, with ACHN, with COLO 205, with DLD-1, in the assay with DMS-273 and with EKVX was > 100 µM (inactive) throughout. Further, the GI50 with HOP-62, with K562, with MOLT-4, with Malme-3M, in the assay with NCI-H23 and in the assay with SF-295 was > 100 µM (inactive) each time. Besides, the GI50 with SF-539, in the assay on SK-MEL-5 and with SNB-75 was > 100 µM (inactive) each time.
As for `CS(=O)(=O)CSCSSCS(C)(=O)=O`, the GI50 in the assay with 786-0 is 20.1 µM (inactive); in the assay with ACHN, 40 µM (inactive); in the assay on COLO 205, 18.2 µM (inactive); in the assay with DLD-1 it was 30 µM (inactive); in the assay with DMS-273, 25.9 µM (inactive); in the assay on EKVX, > 100 µM (inactive). Moreover, the GI50 in the assay on HCT-15 was 28 µM; in the assay on HOP-62, 51.8 µM (inactive); in the assay on K562, 23.8 µM (inactive); in the assay with MOLT-4, 25.5 µM (inactive); in the assay with Malme-3M, 38.7 µM (inactive); with NCI-H23, 35.5 µM (inactive). Moreover, the GI50 was 18.2 µM (inactive) in the assay on SF-295; 22 µM (inactive) with SF-539; 40.8 µM (inactive) in the assay with SK-MEL-5; 29.2 µM (inactive) in the assay on SN12C; > 63.4 µM (inactive) with SNB-75.
As for `CC1(C)C2C=CC1C(=O)CC2` (stereo not drawn), the GI50 in the assay with 786-0 was > 100 µM (inactive); in the assay with ACHN it was > 100 µM (inactive); in the assay on DLD-1, > 100 µM (inactive); in the assay on DMS-273, > 100 µM (inactive); in the assay on EKVX, > 100 µM (inactive); in the assay with HCT-15, more than 100 µM. The GI50 in the assay on HOP-62, with K562, with MOLT-4, with Malme-3M, in the assay with NCI-H23 and in the assay with SF-295 was > 100 µM (inactive) each time. Besides, the GI50 in the assay on SF-539, in the assay on SK-MEL-5 and with SNB-75 was > 100 µM (inactive) throughout.
As to `COC(=O)C(C(=O)C(=O)Nc1c(Cl)cc([N+](=O)[O-])cc1Cl)c1csc(-n2nc(C3=CCCCC3)cc2-c2ccccc2)n1` (stereo not drawn), the GI50 was 74 µM (inactive) in the assay with 786-0; 35.5 µM (inactive) in the assay on ACHN; 32.1 µM (inactive) in the assay with COLO 205; 28.8 µM (inactive) in the assay on DLD-1; 74.5 µM (inactive) in the assay with DMS-273; 8.47 µM (inactive) in the assay with EKVX. Besides, the GI50 is 36.2 µM with HCT-15; 64.9 µM (inactive) with HOP-62; 48.5 µM (inactive) with K562; 52.2 µM (inactive) with MOLT-4; > 100 µM (inactive) in the assay with Malme-3M; 43.8 µM (inactive) with SF-295. Further, the GI50 in the assay with SF-539 was 34.8 µM (inactive); in the assay with SN12C it was 67.9 µM (inactive); in the assay with SNB-75 it was 30.7 µM (inactive).
For `CCOC(=O)CNc1nnnn1C1OC(CO)C(O)C1O` (stereo not drawn), the GI50 in the assay on 786-0, in the assay with ACHN, in the assay with COLO 205, in the assay with DLD-1, with DMS-273 and in the assay with EKVX was > 100 µM (inactive) each time. Also, the GI50 in the assay on HCT-15 was more than 100 µM; in the assay on HOP-62, > 100 µM (inactive); with K562 it was > 100 µM (inactive); in the assay with MOLT-4, > 100 µM (inactive); in the assay on Malme-3M it was > 100 µM (inactive); in the assay with SF-295 it was > 100 µM (inactive). Moreover, the GI50 in the assay on SF-539, in the assay on SK-MEL-5, in the assay on SN12C and in the assay with SNB-75 was > 100 µM (inactive) each time.
As for `O=C(O/N=C1\CCCC\C1=C/c1ccccc1)c1ccc([N+](=O)[O-])cc1`, the GI50 in the assay with 786-0 is 98.6 µM (inactive); in the assay on ACHN, 64.4 µM (inactive); in the assay with COLO 205 it was > 100 µM (inactive); in the assay on DLD-1, 80 µM (inactive); with DMS-273, > 100 µM (inactive); in the assay on EKVX it was > 100 µM (inactive). Besides, the GI50 in the assay with HCT-15 was more than 100 µM; in the assay with HOP-62, > 100 µM (inactive); in the assay with K562, 74.1 µM (inactive); with MOLT-4, > 100 µM (inactive); in the assay with Malme-3M, > 100 µM (inactive); with NCI-H23, 87.5 µM (inactive). Also, the GI50 with SF-295 was 69.8 µM (inactive); in the assay with SF-539 it was 41.3 µM (inactive); in the assay with SN12C, > 100 µM (inactive); in the assay with SNB-75 it was 41.7 µM (inactive).
`N#CNC(=N)NC(=O)/C=C/C=C/c1ccc(Cl)cc1`: the GI50 with 786-0 was 88.5 µM (inactive); with ACHN, > 100 µM (inactive); in the assay with COLO 205 it was > 100 µM (inactive); in the assay with DLD-1, > 100 µM (inactive); with DMS-273 it was > 100 µM (inactive); in the assay on HCT-15 it was more than 100 µM. Also, the GI50 with HOP-62 is > 100 µM (inactive); in the assay on K562, > 100 µM (inactive); with MOLT-4, > 100 µM (inactive); in the assay on Malme-3M it was 39.4 µM (inactive); with NCI-H23 it was > 100 µM (inactive); with SF-295 it was > 100 µM (inactive). In addition, the GI50 was 21.3 µM (inactive) in the assay on SF-539, 33.3 µM (inactive) in the assay on SK-MEL-5, > 100 µM (inactive) in the assay on SN12C and 24.2 µM (inactive) in the assay on SNB-75.
Consider `CCCCCCCCCCCCCCC(O)C1CCC(C(O)CCC(O)CCCCCC(O)CC2=CC(C)OC2=O)O1` (stereo not drawn), for which the GI50 was 2.43 µM (inactive) in the assay with 786-0; 2.43 µM (inactive) in the assay with COLO 205; 2.31 µM (inactive) in the assay on DLD-1; 1.4 µM (inactive) with DMS-273; 1.93 µM (inactive) in the assay with EKVX; 1.29 µM with HCT-15. In addition, the GI50 in the assay on HOP-62 was 1.55 µM (inactive); in the assay with K562, 0.0123 µM (active); with MOLT-4, 0.64 µM (active); with Malme-3M, 1.58 µM (inactive); with NCI-H23, < 0.01 µM (active); with SF-295, 1.26 µM (inactive). Further, the GI50 was 1.3 µM (inactive) with SF-539, 0.0131 µM (active) in the assay on SK-MEL-5, 1.24 µM (inactive) with SN12C and 2.22 µM (inactive) with SNB-75.
Consider `O=C(C/C(CCC(=O)N(Cc1ccccc1)Cc1ccccc1)=N/Nc1ccc([N+](=O)[O-])cc1[N+](=O)[O-])c1ccccc1`, for which the GI50 in the assay with 786-0 is > 100 µM (inactive); in the assay with COLO 205 it was > 100 µM (inactive); in the assay on DLD-1 it was 49.9 µM (inactive); with DMS-273, > 100 µM (inactive); with EKVX, > 100 µM (inactive); in the assay with HCT-15 it was 40.5 µM. In addition, the GI50 was 70.8 µM (inactive) with HOP-62; 28.1 µM (inactive) in the assay with K562; 22.8 µM (inactive) in the assay on MOLT-4; > 100 µM (inactive) in the assay with Malme-3M; > 100 µM (inactive) with NCI-H23; > 100 µM (inactive) in the assay with SF-295. Further, the values for the GI50 with SF-539 and in the assay with SNB-75 were 54 µM (inactive) and > 100 µM (inactive), respectively.
Take `OCC1=CC(NC2CC(CO)C(O)C(O)C2O)C(O)C(O)C1O` (stereo not drawn): the GI50 with 786-0, with ACHN, with COLO 205, in the assay on DLD-1, with DMS-273 and in the assay with EKVX was > 100 µM (inactive) each time. Further, the GI50 in the assay with HCT-15 was more than 100 µM; in the assay with HOP-62 it was > 100 µM (inactive); with K562, > 100 µM (inactive); with MOLT-4, > 100 µM (inactive); in the assay with Malme-3M it was > 100 µM (inactive); in the assay on NCI-H23 it was > 100 µM (inactive). In addition, the GI50 with SF-295, in the assay with SF-539, with SN12C and in the assay on SNB-75 was > 100 µM (inactive) throughout.
As for `COC1=CC(=O)[C@]2(C)[C@H](C1=O)C(C)[C@H]2c1ccccc1` (stereo partly drawn), the GI50 with 786-0, in the assay on ACHN, with COLO 205, in the assay with DLD-1, in the assay on DMS-273 and in the assay with EKVX was > 100 µM (inactive) in each case. For the same molecule, the GI50 with HCT-15 is more than 100 µM; in the assay on HOP-62, > 100 µM (inactive); in the assay on K562 it was > 100 µM (inactive); in the assay with MOLT-4 it was > 100 µM (inactive); in the assay on Malme-3M, > 100 µM (inactive); in the assay on NCI-H23, > 100 µM (inactive). The GI50 in the assay on SF-295, in the assay with SF-539, with SK-MEL-5 and with SNB-75 was > 100 µM (inactive) throughout.

For the origin of these results see ChEMBL document CHEMBL1201862, “PubChem BioAssay data set” (2004).
